Laboratory results published in publication PMC8891364, “Synthesis, and docking studies of novel heterocycles incorporating the indazolylthiazole moiety as antimicrobial and anticancer agents” (Scientific Reports, 2022).
≈ marks a conversion by molar mass, not a printed value.

Columns and labels:
[1] = test system: Streptococcus mutans ATCC 25175; experiment: Antimicrobial microtiter-plate MIC assay; assay type: cell-based; conditions: for MIC Streptococcus mutant: 24 h, 37 °C; for MIC: Streptococcus mutans, ATCC25175, 24 h, read-out: MIC Streptococcus mutant
Procedure: (§1) The antimicrobial activity of the newly synthesized compounds (2–9) was evaluated against three model pathogenic microorganisms as follows: Streptococcus mutans ATCC 25175 (Gram-positive bacterium); Pseudomonas aeruginosa ATCC 27853 (Gram-negative bacterium); and Candida albicans ATCC 10231 (fungi-like unicellular organism). After cultivating the three tested pathogens overnight in LB broth, 100 µL of each tested organism (10^6 CFU/mL) was added separately to 100 µL of the serially diluted test compounds (5–80 µg) in a 96-well tissue culture plate and incubated at 37 °C for 24 h. Eventually, microbial growth was measured at 600 nm, and the results are presented in the form of MIC (Table 4). Two antibacterial reference drugs, ampicillin and ciprofloxacin, and one antifungal drug, clotrimazole, were incorporated into the experiments.

[2] = test system: Pseudomonas aeruginosa ATCC 27853; experiment: Antimicrobial microtiter-plate MIC assay; assay type: cell-based; conditions: 24 h, 37 °C; for MIC: Pseudomonas aeruginosa, ATCC27853
Procedure: as §1

[3] = test system: Candida albicans ATCC 10231; experiment: Antimicrobial microtiter-plate MIC assay; assay type: cell-based; conditions: for MIC: ATCC10231; for MIC / MIC Candida albicans: 24 h, 37 °C
Procedure: as §1

HFB-4 cells = experiment: MTT cytotoxicity assay, normal human melanocytes; assay type: cell-based; conditions: 48 h; for IC50: Melanocyte
Procedure: (§2) The human melanocytes (HFB-4) cells, hepatoma (HepG-2) cells, and colon carcinoma (Caco-2) cells were obtained from American Type Culture Collection (ATCC, USA). The cytotoxicity of the newly synthesized compounds (at various concentrations) was determined using the 3-[4, 5-dimethylthiazol]-2, 5-diphenyltetrazolium bromide method (MTT assay)[59] against HFB-4 cells (normal human melanocytes), HepG-2 cells (hepatoma), and Caco-2 cells (colon carcinoma). Normal and cancer cells (1.0 × 10^4) were cultured in sterile 96-well microplates, and incubated for 24 h in DMEM (Lonza, USA) supplemented with 10% fetal bovine serum (Gibco, USA) for HFB-4 and Caco-2 cells or in an RPMI-1640 medium (Lonza, USA) supplemented with 10% FBS for HepG-2 cells. After 24 h of incubation, different doses of the tested synthesized compounds ([…]) were added in triplicate to all cells and incubated for another 48 h in 5% CO2. After washing the cells 3 times with fresh media, to remove dead cells and debris, a solution of MTT (Sigma -Aldrich, 0.5 mg/mL) was added to each well and further incubated for 2–5 h at 37 °C. Afterward, the MTT solution was decanted and 200 µL of DMSO was added. The optical density was measured at 570 nm using a microplate reader (BMG LabTech, Germany), where the cells’ relative viability (%) was estimated using the following equation: viability of cells (%) = [A1 − A0/AU − A0] × 100, where A1 is the absorbance of the test compound, A0 is the absorbance of the blank, and AU is the absorbance of untreated cells (control).
(§3) The antitumor activity of the synthesized compound was determined by calculating the IC50 value (half maximal inhibitory concentration) using Graph Pad Prism 6.0 software. The value of IC50 indicates the derivative concentration that causes 50% cell death, whereas the value of the selectivity index (SI), indicating the ratio of the IC50 value of normal cells versus the IC50 value of tumor cells, was also included as reported by[60],[61].

HepG-2 cells = experiment: MTT antitumor assay, hepatoma cells; assay type: cell-based, human; conditions: for IC50 HepG-2 / IC50: MTT, 48 h; for SI HepG-2: ratio of IC50 of normal cells (HFB-4) versus IC50 of tumor cells; for IC50: Homo sapiens, HepG2, 48 h
Procedure: as §2, §3

Pseudomonas aeruginosa = experiment: Microbial-biofilm inhibition, tissue-culture plate technique (TCP); assay type: cell-based; conditions: 25 µg/mL, 24 h
Procedure: (§4) The activity of the newly synthesized compounds against microbial biofilm formation was estimated through the tissue-culture plate technique (TCP) as follows: the three above-mentioned pathogens, Streptococcus mutans, Pseudomonas aeruginosa, and Candida albicans were cultivated overnight in LB broth at 37 °C. Afterward, 200 µL of each diluted organism (10^6 CFU/mL) was inoculated separately (in triplicate) into 96-well tissue culture plates and incubated overnight at 37 °C. The free planktonic cells were removed, after the incubation period, by flipping the plate and washing each well three times with phosphate-buffered-saline (PBS), pH 7.1. To each well, 175 µL of fresh LB broth was added along with 25 µL of the tested compound (25 µg/mL final concentrations). The plates were reincubated at 37 °C for another 24 h, washed with PBS buffer pH 7.1 three times, and dried for 5 min at 50 °C. The formed biofilm was stained with crystal violet solution (0.1% w/v) for 5 min. The excess stain was decanted, and the stained biofilm was solubilized with 200 µL of glacial acetic acid (30% v/v), where the developed blue color was measured at 590 nm. The results are expressed as relative inhibition (%) compared to untreated groups (control). Controls were prepared by culturing the three pathogens on LB medium without any tested compounds.

Caco-2 cells = experiment: MTT antitumor assay, colon carcinoma cells; assay type: cell-based; conditions: for IC50 Caco-2 / IC50: MTT, 48 h; for SI Caco-2: ratio of IC50 of normal cells (HFB-4) versus IC50 of tumor cells; for IC50: Homo sapiens, Caco-2, 48 h
Procedure: as §2, §3

Streptococcus mutans = experiment: Microbial-biofilm inhibition, tissue-culture plate technique (TCP); assay type: cell-based; conditions: 25 µg/mL, 24 h
Procedure: as §4

Candida albicans = experiment: as above; assay type: cell-based; conditions: 24 h, relative to untreated; for inhibition at 25 µg/mL: Candida albicans
Procedure: as §4

β-catenin gene = experiment: qRT-PCR gene expression in HepG-2 and Caco-2 cells; assay type: cell-based, human; conditions: IC50 concentrations, 2 days
Procedure: The effects of the potent antitumor derivatives (4, 6, and 8) on the expression level of some tumor regulating genes were elucidated through quantitative real-time PCR (qRT- PCR) and compared to 5-fluorouracil (5-FU) as a reference antitumor drug. Five genes were assessed, including the tumor oncogene (Bcl-2), tumor suppressor gene (p53), matrix metalloproteinase gene (MMP-9), vascular endothelial growth factor gene (VEGF), and beta-catenin protein gene (β-catenin), in HepG-2 and Caco-2 cells, before and after treatment for 2 days with IC50 concentrations for compounds 4, 6, and 8. Following the extraction of total RNA from the tested cells, using the Gene JET RNA Purification Kit (Thermo Scientific, USA), cDNA synthesis was performed according to the cDNA Synthesis Kit protocol (Thermo Scientific, USA). qRT PCR was performed using the SYBR green kit and specific primers (Forward/Reverse) as follows: 5′-[…]-3'/5'-TCG GTCTCCTAAAAGCAGGC-3′ for the Bcl-2 gene, 5′-TAACAGTTCCTGCATG GG CG GC-3′/5′-[…]-3′ for p53, 5'-CTGCGTATTTCCATT CATC-3'/5'-CCTTGGGTCAGGTTTAGAG-3' for the MMP-9 gene, 5'-GGCTTTACT GCTGTACCTCC-3'/5'-CAAATGCTTTCTCCGCTCT-3' for the VEGF gene, and 5'-CATATGCGGCTGCTG TTCTA-3'/5'-CCGAAAG CCGTTTCTTGTAG-3' for the β-catenin gene. The upregulation and/or downregulation of the expression of the tested genes in Caco-2 and HepG-2 cells was determined by using the equation 2^−ΔΔCT[60].

| Compound | MIC Streptococcus mutant [1] [µg/mL] | MIC [1] [µg/mL] | MIC Pseudomonas aeruginosa [2] [µg/mL] | MIC [2] [µg/mL] | MIC ([3]; Candida albicans) [µg/mL] | SI HepG-2 (HepG-2 cells) | biofilm inhibition activity Pseudomonas aeruginosa (in words) (Pseudomonas aeruginosa) | SI Caco-2 (Caco-2 cells) | IC50 (HFB-4 cells) [µg/mL] | IC50 (HepG-2 cells) [µg/mL] | inhibition at 25 µg/mL (Candida albicans) [%] | IC50 (Caco-2 cells) [µg/mL] | also measured |
| --- | --- | --- | --- | --- | --- | --- | --- | --- | --- | --- | --- | --- | --- |
| CC1(C)S[C@@H]2[C@H](NC(=O)[C@H](N)c3ccccc3)C(=O)N2[C@H]1C(=O)O [Ampicillin, ampicillin, reference compound] | 13.5 ± 0.234 (≈ 38.6 µM) | 13.5 (≈ 38.6 µM) |  |  |  |  |  |  |  |  |  |  |  |
| O=C(O)c1cn(C2CC2)c2cc(N3CCNCC3)c(F)cc2c1=O [Ciprofloxacin, ciprofloxacin, reference compound] |  |  | 18.7 ± 0.475 (≈ 56.4 µM) | 18.7 (≈ 56.4 µM) |  |  |  |  |  |  |  |  |  |
| Clc1ccccc1C(c1ccccc1)(c1ccccc1)n1ccnc1 [Clotrimazole, clotrimazole, reference compound] |  |  |  |  | 14.5 ± 1.25 (≈ 42 µM) |  |  |  |  |  |  |  |  |
| NS(=O)(=O)c1ccc(Nc2csc(N3NC4=C(CCCC4)C3c3ccccc3)n2)cc1 (stereo not drawn) [Compound 2] | 49.71 ± 0.5849 (≈ 110 µM) |  | 40.13 ± 2.109 (≈ 88.5 µM) |  |  | 17.39 ± 0.24 | high biofilm inhibition activity | 18.28 ± 0.25 |  |  |  |  | IC50 HFB-4 (HFB-4 cells): 110.8 ± 1.54 µg/mL (≈ 244 µM); IC50 HepG-2 (HepG-2 cells): 6.37 ± 0.36 µg/mL (≈ 14 µM); biofilm inhibition Pseudomonas aeruginosa (Pseudomonas aeruginosa; relative to untreated): approximately 58.5%; MIC Candida albicans [3]: 52.77 ± 0.7862 µg/mL (≈ 116 µM); IC50 Caco-2 (Caco-2 cells): 6.06 ± 1.26 µg/mL (≈ 13.4 µM) |
| N#CC1=C(N)N(c2ccc(S(N)(=O)=O)cc2)c2nc(N3NC4=C(CCCC4)C3c3ccccc3)sc2C1c1ccccc1 (stereo not drawn) [Compound 3, 4-(5-amino-6-cyano-7-phenyl-2-(3-phenyl-1,3,4,5,6,7-hexahydro-2H-indazol-2-yl)thiazolo[4,5-b]pyridin-4(7H)-yl) benzenesulfonamide] | 11.12 ± 0.4232 (≈ 18.3 µM) |  | 18.29 ± 2.114 (≈ 30.1 µM) |  |  | 7.20 ± 0.20 | high biofilm inhibition activity | 7.18 ± 0.20 |  |  |  |  | IC50 HFB-4 (HFB-4 cells): 55.59 ± 1.58 µg/mL (≈ 91.5 µM); IC50 HepG-2 (HepG-2 cells): 7.72 ± 0.38 µg/mL (≈ 12.7 µM); antibiofilm formation activity Streptococcus mutans (in words) (Streptococcus mutans): had antibiofilm formation activities; biofilm inhibition Streptococcus mutans (Streptococcus mutans; relative to untreated): around 64%; biofilm inhibition Candida albicans (Candida albicans; 25 µg/mL): 69%; MIC Streptococcus mutant ([1]; listed as derivative 3): 11.2 µg/mL (≈ 18.4 µM); MIC Pseudomonas aeruginosa ([2]; listed as derivative 3): 18.29 µg/mL (≈ 30.1 µM); MIC Candida albicans [3]: 40.74 ± 0.5511 µg/mL (≈ 67 µM); MIC Candida albicans ([3]; listed as compound 3): 40.74 µg/mL (≈ 67 µM); antifungal activity as share of clotrimazole activity ([3]; Candida albicans): 36%; IC50 Caco-2 (Caco-2 cells): 7.74 ± 0.81 µg/mL (≈ 12.7 µM) |
| N#Cc1c(N)sc2sc(N3NC4=C(CCCC4)C3c3ccccc3)nc12 (stereo not drawn) [Compound 5, 5-amino-2-(3-phenyl-1,3,4,5,6,7-hexahydro-2H-indazol-2-yl)thieno[3,2-d]thiazole-6-carbonitrile] |  | 43.52 ± 0.359 (≈ 115 µM) |  | 56.5 ± 2.19 (≈ 149 µM) | 59 ± 1.28 (≈ 156 µM) | 12.90 ± 0.32 | high biofilm inhibition activity | 12.87 ± 0.32 | 97.7 ± 2.41 (≈ 257 µM) | 7.57 ± 0.36 (≈ 19.9 µM) | 68 | 7.59 ± 0.24 (≈ 20 µM) |  |
| O=c1[nH]cc(F)c(=O)[nH]1 [Compound 5-FU, 5-fluorouracil, reference compound] |  |  |  |  |  |  |  |  |  |  |  |  | expression of the β-catenin gene (β-catenin gene): stimulated its expression |
| N=C1CC(=O)Oc2nc(N3NC4=C(CCCC4)C3c3ccccc3)sc21 (stereo not drawn) [Compound 7, 7-imino-2-(3-phenyl-1,3,4,5,6,7-hexahydro-2H-indazol-2-yl)-6,7-dihydro-5H-pyrano [2,3-d]thiazol-5-one] |  | 22.4 ± 0.317 (≈ 61.2 µM) |  | 43.9 ± 2.04 (≈ 120 µM) | 58.2 ± 1.21 (≈ 159 µM) | 10.99 ± 0.65 |  | 11.39 ± 0.67 | 105 ± 6.2 (≈ 286 µM) | 9.53 ± 0.32 (≈ 26 µM) | 66 | 9.2 ± 0.27 (≈ 25.1 µM) |  |
| CCOC(=O)C1=C2N=C(N3NC4=C(CCCC4)C3c3ccccc3)SC2C(=S)S1 (stereo not drawn) [Compound 9, ethyl 2-(3-phenyl-1,3,4,5,6,7-hexahydro-2H-indazol-2-yl)-6-thioxo-6,6a-dihydrothieno [3,4-d]thiazole-4-carboxylate] |  | 48.77 ± 0.246 (≈ 110 µM) |  | 61.5 ± 1.83 (≈ 139 µM) | 46.6 ± 1.2 (≈ 105 µM) | 12.55 ± 0.06 |  | 11.04 ± 0.05 | 65.65 ± 0.29 (≈ 148 µM) | 5.23 ± 0.25 (≈ 11.8 µM) | ~79 | 5.95 ± 0.1 (≈ 13.4 µM) |  |
